In US4260603A, “Sterol glycoside with activity as prostaglandin synthetase inhibitor” (priority 1979, dated 1981):
≈ marks a conversion by molar mass, not a printed value.

Experiments:
[1] = Acute toxicity by oral administration; type: in vivo, rate, mice rabbits, dogs and primates; details: doses of 1 to 2 grams/kg of body weight
[2] = system: arthritis of rats caused by erysipeloid (strain T 28); test: Erysipeloid arthritis of rats, evaluation of aorta thrombes; type: in vivo, Male wistar rats; details: 5 mg/kg i.p., 5 times per week from infection day; comparison group 2.80
From the text: When comparing arthritis based on experimental erysipeloid of for example rats with human rheumatic arthritis an extensive correspondence of the morphological changes can be observed. The tests had been made according to the publication of Schulz et al. Beitr. Path. 154, 1-26, 27-51 (1975). The arthritis of rats caused by erysipeloid can be reproduced with nearly 100 percent effectiveness with a single injection. In case of arthritis caused by erysipeloid always more than 6 joints of the limbs are transformed, namely big and small joints of the limbs in the same manner.
In the test of the compounds the following parameters of the manifestation phase had been used for estimating the activity of the compound.
With rats fibrine-rich thrombes occur about 6th to 11th day of the intima of the aorta. The largest space covered is about 8th day.
Male wistar rats with a body weight of 150 to 180 g were used for the tests. The animals had been kept in single cages and got a rat standard diet (Ssniff R) and water ad libitum.
The infection was carried out with the erysipeloid strain T 28. The dosage was 2 ml s.c. (about 100-200 millions germs). The compounds to be tested had been suspended in sterile saline solution and had been injected i.p. in a dosage of 5 mg/kg body weight. The treatment was 5 times per week from infection day to end of test or death of animal.

[3] = Toxicity on administration over a long period of time; type: in vivo, rate, mice rabbits, dogs and primates; details: daily doses of 100 to 200 mg/kg of body weight over a long period of time
physchem = type: physicochemical; details: water
From the text: According to the described process there can also be produced solutions of other sterol disaccharides. […] This solubility is above the preferred individual doses employed of the compounds.

| Structure (SMILES) | acute toxicity [1] | evaluation of aorta thrombes (value) [2] | tolerance [3] | solubility (physchem) [µg/mL] |
| --- | --- | --- | --- | --- |
| CC[C@H](CC[C@@H](C)[C@H]1CC[C@H]2[C@@H]3CC=C4C[C@@H](O[C@@H]5O[C@H](CO)[C@@H](O)[C@H](O)[C@H]5O)CC[C@]4(C)[C@H]3CC[C@]12C)C(C)C [sitosterol-β-D-glucoside, Sitosterol-β-D-Glucoside] | no toxic effects | 2.00 | good |  |
| CC[C@H](CC[C@@H](C)[C@H]1CC[C@H]2[C@@H]3CC=C4C[C@@H](O[C@@H]5O[C@H](CO)[C@@H](O[C@@H]6O[C@H](CO)[C@@H](O)[C@H](O)[C@H]6O)[C@H](O)[C@H]5O)CC[C@]4(C)[C@H]3CC[C@]12C)C(C)C [β-D-cellobioside of sitosterol] |  |  |  | 750 (≈ 1010 µM) |
| C[C@@H]1CC[C@@]2(OC1)O[C@H]1C[C@H]3[C@@H]4CC[C@H]5C[C@@H](O[C@@H]6O[C@H](CO)[C@@H](O)[C@H](O)[C@H]6O)CC[C@]5(C)[C@H]4CC(=O)[C@]3(C)[C@H]1[C@@H]2C [hecogeninglucoside, hecogenin β-D-glucoside] |  | 1.38 |  |  |
| C[C@@H]1CC[C@@]2(OC1)O[C@H]1C[C@H]3[C@@H]4CC=C5C[C@@H](O[C@@H]6O[C@H](CO)[C@@H](O)[C@H](O)[C@H]6O)CC[C@]5(C)[C@H]4CC[C@]3(C)[C@H]1[C@@H]2C [diosgeninglucoside, diosgenin-3-β-D-Glucoside] |  | 1.33 |  |  |
| CC[C@H](CC[C@@H](C)[C@H]1CC[C@H]2[C@@H]3CC=C4C[C@@H](O[C@@H]5O[C@H](CO)[C@@H](O[C@@H]6O[C@H](CO)[C@H](O)[C@H](O)[C@H]6O)[C@H](O)[C@H]5O)CC[C@]4(C)[C@H]3CC[C@]12C)C(C)C [β-D-lactoside of sitosterol] |  |  |  | 210 (≈ 284 µM) |
